Experimental data reported in ChEMBL document CHEMBL2086234, “Phenolic constituents from the rhizomes of Acorus gramineus and their biological evaluation on antitumor and anti-inflammatory activities” (Bioorg Med Chem Lett, 2012).
Active and inactive are the calls of the source. No cut-off for these calls is given here.

Assays:
[1] = Cytotoxicity against mouse BV2 cells assessed as cell viability at 20 uM by MTT assay; format: cell-based, BV-2; details: read-out: Activity
[2] = tested on: A549; test: Cytotoxicity against human A549 cells by SRB assay; format: functional, cell-based
[3] = tested on: SK-OV-3; test: Cytotoxicity against human SKOV3 cells by SRB assay; format: functional, cell-based
[4] = tested on: SK-MEL-2; test: Cytotoxicity against human SK-MEL-2 cells by SRB assay; format: functional, cell-based
[5] = tested on: HCT-15; test: Cytotoxicity against human HCT15 cells by SRB assay; format: functional, cell-based
[6] = tested on: BV-2; test: Antiinflammatory activity in mouse BV2 cells assessed as inhibition of LPS-induced NO production treated 30 mins before LPS stimulation measured after 24 hrs by Griess reaction; format: functional, cell-based
[7] = molecular target: T1, Nitric oxide synthase, inducible (Mus musculus) (UniProt P29477); test: Inhibition of iNOS activity in mouse BV2 cells assessed as inhibition of LPS-induced NO production at 20 uM treated 12 hrs before LPS challenge measured after 12 hrs by Griess reaction; format: cell-based; details: BV-2
T1 sequence (whole entry): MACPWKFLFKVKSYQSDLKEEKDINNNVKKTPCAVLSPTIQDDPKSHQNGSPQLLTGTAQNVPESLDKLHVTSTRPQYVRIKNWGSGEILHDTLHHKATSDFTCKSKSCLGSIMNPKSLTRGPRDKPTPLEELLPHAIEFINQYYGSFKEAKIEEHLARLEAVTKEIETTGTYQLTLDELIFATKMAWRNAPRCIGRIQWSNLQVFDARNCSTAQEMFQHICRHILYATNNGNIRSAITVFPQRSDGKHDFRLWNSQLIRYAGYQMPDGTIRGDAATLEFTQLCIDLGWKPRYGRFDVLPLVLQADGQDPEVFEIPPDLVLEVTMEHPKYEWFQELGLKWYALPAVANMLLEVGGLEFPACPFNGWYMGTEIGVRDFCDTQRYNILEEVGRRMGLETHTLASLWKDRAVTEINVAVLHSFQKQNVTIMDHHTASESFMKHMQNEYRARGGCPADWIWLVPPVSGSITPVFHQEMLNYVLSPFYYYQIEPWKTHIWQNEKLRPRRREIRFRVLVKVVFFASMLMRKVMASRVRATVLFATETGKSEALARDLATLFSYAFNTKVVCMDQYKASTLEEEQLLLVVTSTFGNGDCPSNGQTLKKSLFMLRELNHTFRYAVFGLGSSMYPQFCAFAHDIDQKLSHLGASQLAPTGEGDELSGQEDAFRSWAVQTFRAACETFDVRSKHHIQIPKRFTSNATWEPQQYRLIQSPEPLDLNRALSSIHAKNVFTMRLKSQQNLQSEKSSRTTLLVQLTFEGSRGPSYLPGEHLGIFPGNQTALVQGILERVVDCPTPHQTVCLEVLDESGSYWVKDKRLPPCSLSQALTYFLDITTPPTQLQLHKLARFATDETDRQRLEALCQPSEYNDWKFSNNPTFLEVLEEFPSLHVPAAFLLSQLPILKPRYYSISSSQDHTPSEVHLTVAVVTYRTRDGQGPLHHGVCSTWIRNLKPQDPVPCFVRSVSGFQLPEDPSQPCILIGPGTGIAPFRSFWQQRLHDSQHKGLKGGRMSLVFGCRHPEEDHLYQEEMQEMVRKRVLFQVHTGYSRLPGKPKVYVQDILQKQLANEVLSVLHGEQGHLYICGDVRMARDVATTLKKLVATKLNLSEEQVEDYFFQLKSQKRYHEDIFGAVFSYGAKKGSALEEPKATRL

[8] = tested on: BV-2; test: Antiinflammatory activity in mouse BV2 cells assessed as inhibition of LPS-induced iNOS protein expression at 10 to 20 uM treated 30 mins before LPS stimulation measured after 6 hrs by Western blot analysis; format: functional, cell-based
[9] = tested on: BV-2; test: Antiinflammatory activity in mouse BV2 cells assessed as inhibition of sodium nitroprusside-induced nitrite accumulation at 10 to 20 uM after 180 mins by Griess reaction; format: functional, cell-based

IC50 [6] [µM] | inhibition [7] | SMILES | viability at 20 µM [1] [%] | IC50 [2] [µM] | IC50 [3] [µM] | IC50 [4] [µM] | IC50 [5] [µM] | inhibition [8] | inhibition [9]
58.1 | – | O=C(CCO)c1ccc(O)cc1 | 107 | > 30 | > 30 | > 30 | > 30 | – | –
17.9 | Active | COc1cc(CCCO)ccc1O[C@H](C)[C@H](O)c1cc(OC)c(OC)c(OC)c1 | 88.8 | 4.17 | 26.2 | 14.2 | 24.3 | – | –
> 500 | – | COc1ccc(CCCO)cc1OC | 103 | 23.1 | 11.8 | 21.9 | 26.6 | – | –
32.1 | – | COc1cc(/C=C\C(=O)NCCc2ccc(O)cc2)ccc1O | 100 | > 30 | > 30 | > 30 | > 30 | – | –
54.8 | – | COc1cc(/C=C/C(=O)NC[C@@H](O)c2ccc(O)cc2)ccc1O | 98.3 | > 30 | > 30 | > 30 | > 30 | – | –
18.7 | – | COc1cc(OC)c([C@@H]2[C@H](C)[C@@H](C)[C@H]2c2cc(OC)c(OC)cc2OC)cc1OC (relative stereo) [MAGNOSALIN] | 93.1 | 19.6 | 27.4 | 8.7 | 23.1 | Active | Active
126 | – | COc1cc(OC)c(OC)cc1/C=C\CO [ACORAMOL] | 105 | > 30 | > 30 | 25.2 | > 30 | – | –
17.4 | Active | COc1cc(/C=C/C(=O)NCCc2ccc(O)cc2)ccc1O [N-TRANS-FERULOYL TYRAMINE] | 97.8 | > 30 | > 30 | > 30 | > 30 | Active | Active

Further lines, the compound ahead of its results:

SMILES | IC50 [6] [µM] | inhibition [7] | viability at 20 µM [1] [%] | IC50 [2] [µM] | IC50 [3] [µM] | IC50 [4] [µM] | IC50 [5] [µM] | inhibition [8] | inhibition [9]
COc1cc(/C=C\CO)ccc1O | 14.1 | Active | 98.4 | 11 | 13 | 14.7 | 20.4 | Active | –
COc1cc(CCCO)cc(OC)c1OC | 142 | – | 96.3 | > 30 | > 30 | > 30 | > 30 | – | –
COc1cc([C@H](O)[C@@H](CO)Oc2c(OC)cc(CCCO)cc2OC)ccc1O (relative stereo) | 37.2 | – | 106 | > 30 | > 30 | 29.1 | > 30 | – | –
COc1cc(OC)c([C@H]2[C@@H](C)[C@@H](c3cc(OC)c(OC)cc3OC)O[C@@H]2C)cc1OC (relative stereo) | 59.9 | – | 101 | > 30 | 26.4 | 11.3 | > 30 | – | –
COc1cccc2c1C(=O)c1c(O)c3c(c(O)c1C2=O)C[C@@](O)(C(=O)CO)C[C@@H]3O[C@H]1C[C@H](N)[C@H](O)[C@H](C)O1 [DOXORUBICIN] | – | – | – | – | 0.004 | 0.004 | 0.082 | – | –
COc1cc(CCCO)ccc1O[C@H](C)[C@@H](O)c1cc(OC)c(OC)c(OC)c1 [SURINAMENSINOL B] | 8.17 | – | 76.2 | 5.41 | 21.4 | 10.4 | 18.8 | – | Active
CNC(=N)NCCC[C@H](N)C(=O)O [TILARGININE] | 18.2 | – | 98.8 | – | – | – | – | – | –
